US20260265248A1, “NOVEL PD-L1 INHIBITORS” (AFFIRMA BIOTECH S. L., priority 2023, published 2026)

These compounds were tested against T1, PD-1/PD-L1 (Homo sapiens, UniProt Q9NZQ7) (assay: PD1-PDL1 HTRF assay). Settings: PD-1/PD-L1 homogenous time-resolved fluorescence (HTRF) binding assay; Tag1-PDL1 5 nM, Tag2-PD1 50 nM.
T1 construct: purchased CisBio
Source text: The CisBio HTRF assay kit, purchased from CisBio only, was employed to determine the IC50 values of compounds. The PD1-PDL1 HTRF assay measures the interactions between the two proteins, PD1 and PDL1. The interaction is detected by using anti-Tag1 labeled with Europium (HTRF donor) which binds to PDL1 and anti-Tag2 labeled with XL665 (HTRF acceptor) which binds to PD1. When the two antibodies are in proximity, the excitation of the donor fluorophore results in FRET emission from the acceptor fluorophore. The presence of inhibitors for such an interaction result in reduction of HTRF signal.
The assay was conducted in 96-well white assay plates. All the reagents, including Tag1-PDL1, Tag2-PD1, Anti-Tag1-PDL1, Anti-Tag2-PD1 were thawed and diluted with PPI Europium Detection buffer to achieve the desired concentration as per the manufacturer's protocol. A 1000 μM stock solution of test inhibitors was prepared in DMSO. The stock solution was diluted in DMSO to prepare 8 concentrations (1000-0.001 μM). These stock solutions were further diluted in PPI Europium detection buffer to prepare 8 working stock solutions (100-0.0001 μM). To the 96-well plate, 2 μL of the test inhibitor working stock solutions were added followed by 4 μL of Tag1-PDL1 (5 nM) and 4 μL of Tag2-PD1 (50 nM). The plate was incubated at room temperature for 15 min. Subsequently, 10 μL of pre-mixed Anti-Tag1-PDL1 and Anti-Tag2-PD1 solution was added. The plate was sealed and incubated at room temperature for 1 h. The HTRF signal was read on Perkin Elmer Envision plate reader using excitation wavelength of 320 nm, emission wavelengths of 620 nm and 665 nm. Results were obtained by calculating the ratio of signal from acceptor at 665 nm to that of signal from donor at 620 nm multiplied by […]. The IC50 values were determined by the Hill equation using GraphPad Prism software.

T1 sequence (Q9NZQ7 19-238 limits assumed): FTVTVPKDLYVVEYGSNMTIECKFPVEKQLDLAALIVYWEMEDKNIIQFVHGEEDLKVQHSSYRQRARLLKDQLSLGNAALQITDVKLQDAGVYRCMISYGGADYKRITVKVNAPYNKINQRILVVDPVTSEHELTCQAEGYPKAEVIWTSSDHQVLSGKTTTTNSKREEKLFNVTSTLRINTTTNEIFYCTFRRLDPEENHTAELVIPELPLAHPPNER

Row | IC50 | SMILES
1 | 0.1 to 1 µM | Cc1c(-c2ccc3c(c2)OCCO3)cccc1-c1ccn2c(-c3ccc(CN4CC[C@@H]4C(=O)O)cc3)cnc2c1 [Example 29, (R)-1-(4-(7-(3-(2,3-dihydrobenzo[b][1,4]dioxin-6-yl)-2-methylphenyl)imidazo[1,2-a]pyridin-3-yl)benzyl)azetidine-2-carboxylic acid]
2 | 0.1 to 1 µM | Cc1c(-c2ccc3c(c2)OCCO3)cccc1-c1ccn2c(-c3ccc(CNCC(O)CC(=O)O)cc3)cnc2c1 (stereo not drawn) [Example 30, 4-((4-(7-(3-(2,3-dihydrobenzo[b][1,4]dioxin-6-yl)-2-methylphenyl)imidazo[1,2-a]pyridin-3-yl)benzyl)amino)-3-hydroxybutanoic acid]
3 | 0.1 to 1 µM | Cc1c(-c2ccc3c(c2)OCCO3)cccc1-c1ccn2c(-c3ccc(CNC[C@@H](O)CO)cc3)cnc2c1 [Example 31, (R)-3-((4-(7-(3-(2,3-dihydrobenzo[b][1,4]dioxin-6-yl)-2-methylphenyl)imidazo[1,2-a]pyridin-3-yl)benzyl)amino)propane-1,2-diol]
4 | 0.1 to 1 µM | Cc1c(-c2ccc3c(c2)OCCO3)cccc1-c1ccn2c(-c3ccc(CNC[C@H](O)CO)cc3)cnc2c1 [Example 32, (S)-3-((4-(7-(3-(2,3-dihydrobenzo[b][1,4]dioxin-6-yl)-2-methylphenyl)imidazo[1,2-a]pyridin-3-yl)benzyl)amino)propane-1,2-diol]
5 | 0.1 to 1 µM | Cc1c(-c2ccc3c(c2)OCCO3)cccc1-c1ccn2c(-c3ccc(CN4CCCCC4C(=O)O)cc3)cnc2c1 (stereo not drawn) [Example 36, 1-(4-(7-(3-(2,3-dihydrobenzo[b][1,4]dioxin-6-yl)-2-methylphenyl)imidazo[1,2-a]pyridin-3-yl)benzyl)piperidine-2-carboxylic acid]
6 | 0.1 to 1 µM | Cc1c(-c2ccc3c(c2)OCCO3)cccc1-c1ccn2c(-c3ccc(CN4CCC[C@H]4C(=O)O)cc3)cnc2c1 [Example 37, (4-(7-(3-(2,3-dihydrobenzo[b][1,4]dioxin-6-yl)-2-methylphenyl)imidazo[1,2-a]pyridin-3-yl)benzyl)proline]
7 | 0.1 to 1 µM | Cc1c(-c2ccc3c(c2)OCCO3)cccc1-c1ccn2c(-c3ccc(CN4C[C@@H](C(=O)O)C[C@H]4O)cc3)cnc2c1 [Example 38, (3S,5R)-1-(4-(7-(3-(2,3-dihydrobenzo[b][1,4]dioxin-6-yl)-2-methylphenyl)imidazo[1,2-a]pyridin-3-yl)benzyl)-5-hydroxypyrrolidine-3-carboxylic acid]
8 | 0.1 to 1 µM | COc1cc(-c2cnc3cc(-c4cccc(-c5ccc6c(c5)OCCO6)c4C)ccn23)cc(OC)c1CN1CCC[C@H]1C(=O)O [Example 40, (4-(7-(3-(2,3-dihydrobenzo[b][1,4]dioxin-6-yl)-2-methylphenyl)imidazo[1,2-a]pyridin-3-yl)-2,6-dimethoxybenzyl)-L-proline]
9 | 0.1 to 1 µM | Cc1c(-c2ccc3c(c2)OCCO3)cccc1-c1ccn2c(-c3ccc(C(=O)NCC(=O)O)cc3)cnc2c1 [Example 41, (4-(7-(3-(2,3-dihydrobenzo[b][1,4]dioxin-6-yl)-2-methylphenyl)imidazo[1,2-a]pyridin-3-yl)benzoyl)glycine]
10 | 0.1 to 1 µM | Cc1c(-c2ccc3c(c2)OCCO3)cccc1-c1ccn2c(-c3ccc(C(=O)N4CCC[C@@H]4C(=O)O)cc3)cnc2c1 [Example 42, (4-(7-(3-(2,3-dihydrobenzo[b][1,4]dioxin-6-yl)-2-methylphenyl)imidazo[1,2-a]pyridin-3-yl)benzoyl)-D-proline]
11 | 0.1 to 1 µM | Cc1c(-c2ccc3c(c2)OCCO3)cccc1-c1ccn2c(-c3ccc(C(=O)N4CCC[C@H]4C(=O)O)cc3)cnc2c1 [Example 43, (4-(7-(3-(2,3-dihydrobenzo[b][1,4]dioxin-6-yl)-2-methylphenyl)imidazo[1,2-a]pyridin-3-yl)benzoyl)-L-proline]
12 | 0.1 to 1 µM | Cc1c(-c2ccccc2)cccc1-c1ccn2c(-n3ccc(C(=O)NCCO)n3)cnc2c1 [Example 44, N-(2-hydroxyethyl)-1-(7-(2-methyl-[1,1′-biphenyl]-3-yl)imidazo[1,2-a]pyridin-3-yl)-1H-pyrazole-3-carboxamide]
13 | 0.1 to 1 µM | Cc1c(-c2ccccc2)cccc1-c1ccn2c(-n3ccc(C(=O)NCC(=O)O)n3)cnc2c1 [Example 45, (1-(7-(2-methyl-[1,1′-biphenyl]-3-yl)imidazo[1,2-a]pyridin-3-yl)-1H-pyrazole-3-carbonyl)glycine]
14 | 0.1 to 1 µM | CC(=O)NCCNC(=O)c1ccn(-c2cnc3cc(-c4cccc(-c5ccccc5)c4C)ccn23)n1 [Example 46, N-(2-acetamidoethyl)-1-(7-(2-methyl-[1,1′-biphenyl]-3-yl)imidazo[1,2-a]pyridin-3-yl)-1H-pyrazole-3-carboxamide]
15 | 0.1 to 1 µM | Cc1c(-c2ccccc2)cccc1-c1ccn2c(-n3ccc(C(=O)NCCC(=O)O)n3)cnc2c1 [Example 47, N 3-(1-(7-(2-methyl-[1,1′-biphenyl]-3-yl)imidazo[1,2-a]pyridin-3-yl)-1H-pyrazole-3-carboxamido)propanoic acid]
16 | 0.01 to 0.1 µM | Cc1c(-c2ccc3c(c2)OCCO3)cccc1-c1ccn2c(-n3ccc(C(=O)NCC(=O)O)n3)cnc2c1 [Example 48, (1-(7-(3-(2,3-dihydrobenzo[b][1,4]dioxin-6-yl)-2-methylphenyl)imidazo[1,2-a]pyridin-3-yl)-1H-pyrazole-3-carbonyl)glycine]
17 | 0.01 to 0.1 µM | Cc1c(-c2ccc3c(c2)OCCO3)cccc1-c1ccn2c(-n3ccc(C(=O)NCC(=O)O)n3)nnc2c1 [Example 49, (1-(7-(3-(2,3-dihydrobenzo[b][1,4]dioxin-6-yl)-2-methylphenyl)-[1,2,4]triazolo[4,3-a]pyridin-3-yl)-1H-pyrazole-3-carbonyl)glycine]
18 | 0.1 to 1 µM | Cc1c(-c2ccccc2)cccc1-c1ccn2c(C#CCN3CCC[C@@H]3C(=O)O)cnc2c1 [Example 50, (3-(7-(2-methyl-[1,1′-biphenyl]-3-yl)imidazo[1,2-a]pyridin-3-yl)prop-2-yn-1-yl)-D-proline]
19 | 0.1 to 1 µM | Cc1c(-c2ccccc2)cccc1-c1ccn2c(C#CCN3CCC[C@H]3C(=O)O)cnc2c1 [Example 51, (3-(7-(2-methyl-[1,1′-biphenyl]-3-yl)imidazo[1,2-a]pyridin-3-yl)prop-2-yn-1-yl)-L-proline]
20 | 0.1 to 1 µM | Cc1c(-c2ccccc2)cccc1-c1ccn2c(-c3ccc(CN4CCCCC4C(=O)O)cc3)nnc2c1 (stereo not drawn) [Example 52, 1-(4-(7-(2-methyl-[1,1′-biphenyl]-3-yl)-[1,2,4]triazolo[4,3-a]pyridin-3-yl)benzyl)piperidine-2-carboxylic acid]
21 | 0.1 to 1 µM | Cc1c(-c2ccccc2)cccc1-c1ccn2c(-c3ccc(CN4CCC[C@H]4C(=O)O)cc3)nnc2c1 [Example 53, (4-(7-(2-methyl-[1,1′-biphenyl]-3-yl)-[1,2,4]triazolo [4,3-a]pyridin-3-yl)benzyl)proline]
22 | 0.1 to 1 µM | Cc1c(-c2ccccc2)cccc1-c1ccn2c(-c3ccc(CNCCO)cc3)nnc2c1 [Example 54, 2-((4-(7-(2-methyl-[1,1′-biphenyl]-3-yl)-[1,2,4]triazolo[4,3-a]pyridin-3-yl)benzyl)amino)ethan-1-ol]
23 | 0.1 to 1 µM | Cc1c(-c2ccccc2)cccc1-c1ccn2c(-c3ccc(CNCC(O)CC(=O)O)cc3)nnc2c1 (stereo not drawn) [Example 55, 3-hydroxy-4-((4-(7-(2-methyl-[1,1′-biphenyl]-3-yl)-[1,2,4]triazolo[4,3-a]pyridin-3-yl)benzyl)amino)butanoic acid]
24 | 0.01 to 0.1 µM | Cc1c(-c2ccc3c(c2)OCCO3)cccc1-c1ccn2c(-c3ccc(CN4CCC[C@@H]4C(=O)O)cc3)nnc2c1 [Example 56, (4-(7-(3-(2,3-dihydrobenzo[b][1,4]dioxin-6-yl)-2-methylphenyl)-[1,2,4]triazolo[4,3-a]pyridin-3-yl)benzyl)-D-proline]
25 | 0.01 to 0.1 µM | Cc1c(-c2ccc3c(c2)OCCO3)cccc1-c1ccn2c(-c3ccc(CN4CCC[C@H]4C(=O)O)cc3)nnc2c1 [Example 57, (4-(7-(3-(2,3-dihydrobenzo[b][1,4]dioxin-6-yl)-2-methylphenyl)-[1,2,4]triazolo[4,3-a]pyridin-3-yl)benzyl)-L-proline]
26 | 0.01 to 0.1 µM | Cc1c(-c2ccccc2)cccc1-c1ccn2c(-c3ccc(CN4CCC[C@@H]4C(=O)O)cc3)nnc2c1 [Example 58, (4-(7-(2-methyl-[1,1′-biphenyl]-3-yl)-[1,2,4]triazolo[4,3-a]pyridin-3-yl)benzyl)-D-proline]
27 | 0.1 to 1 µM | Cc1c(-c2ccc3c(c2)OCCO3)cccc1-c1ccn2c(-c3ccc(CN4C[C@H](O)C[C@H]4C(=O)O)cc3)nnc2c1 [Example 60, (25,4R)-1-(4-(7-(3-(2,3-dihydrobenzo[b][1,4]dioxin-6-yl)-2-methylphenyl)-[1,2,4]triazolo[4,3-a]pyridin-3-yl)benzyl)-4-hydroxypyrrolidine-2-carboxylic acid]
